According to ChEMBL document CHEMBL1127546, “New thiol inhibitors of neutral endopeptidase EC 3.4.24.11: synthesis and enzyme active-site recognition” (J Med Chem, 1994):

Assays:
[1] = molecular target: T1, Angiotensin-converting enzyme (Homo sapiens, UniProt P12821); assay: Tested for inhibitory potency against Angiotensin I Converting Enzyme
Neprilysin [2] = molecular target: T2, Neprilysin (Oryctolagus cuniculus, UniProt P08049); assay: Tested for inhibitory potency against neutral endopeptidase (NEP)
T2 sequence (P08049 whole entry): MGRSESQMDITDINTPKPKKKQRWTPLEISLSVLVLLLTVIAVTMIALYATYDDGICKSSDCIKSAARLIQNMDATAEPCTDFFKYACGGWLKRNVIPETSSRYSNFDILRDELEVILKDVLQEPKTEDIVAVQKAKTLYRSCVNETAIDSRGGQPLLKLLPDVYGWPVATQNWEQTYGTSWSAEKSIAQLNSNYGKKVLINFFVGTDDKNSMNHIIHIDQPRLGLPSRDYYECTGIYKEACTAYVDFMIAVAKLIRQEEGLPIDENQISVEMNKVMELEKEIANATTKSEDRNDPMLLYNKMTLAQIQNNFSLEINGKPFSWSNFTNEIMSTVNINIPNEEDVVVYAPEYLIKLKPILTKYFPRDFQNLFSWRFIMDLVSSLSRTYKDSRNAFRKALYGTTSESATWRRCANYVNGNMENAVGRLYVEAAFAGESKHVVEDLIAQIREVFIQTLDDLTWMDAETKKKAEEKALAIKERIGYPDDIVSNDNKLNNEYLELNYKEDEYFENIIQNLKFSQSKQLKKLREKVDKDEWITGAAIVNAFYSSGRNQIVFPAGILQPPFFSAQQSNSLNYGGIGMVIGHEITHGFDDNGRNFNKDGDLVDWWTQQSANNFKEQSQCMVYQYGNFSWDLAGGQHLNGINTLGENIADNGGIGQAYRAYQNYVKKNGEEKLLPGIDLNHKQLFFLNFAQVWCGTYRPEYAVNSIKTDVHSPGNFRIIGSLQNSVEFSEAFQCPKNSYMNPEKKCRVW

Neprilysin [3] = molecular target: T2, Neprilysin; assay: Tested for binding affinity against neutral endopeptidase (NEP)
[4] = molecular target: T1, Angiotensin-converting enzyme; assay: Tested for inhibitory potency against Angiotensin I converting enzyme
Thermolysin = molecular target: T3, Thermolysin (Bacillus thermoproteolyticus, UniProt P00800); assay: Tested for binding affinity against Thermolysin; parameters: species or system Bacteria
T3 sequence (P00800 whole entry): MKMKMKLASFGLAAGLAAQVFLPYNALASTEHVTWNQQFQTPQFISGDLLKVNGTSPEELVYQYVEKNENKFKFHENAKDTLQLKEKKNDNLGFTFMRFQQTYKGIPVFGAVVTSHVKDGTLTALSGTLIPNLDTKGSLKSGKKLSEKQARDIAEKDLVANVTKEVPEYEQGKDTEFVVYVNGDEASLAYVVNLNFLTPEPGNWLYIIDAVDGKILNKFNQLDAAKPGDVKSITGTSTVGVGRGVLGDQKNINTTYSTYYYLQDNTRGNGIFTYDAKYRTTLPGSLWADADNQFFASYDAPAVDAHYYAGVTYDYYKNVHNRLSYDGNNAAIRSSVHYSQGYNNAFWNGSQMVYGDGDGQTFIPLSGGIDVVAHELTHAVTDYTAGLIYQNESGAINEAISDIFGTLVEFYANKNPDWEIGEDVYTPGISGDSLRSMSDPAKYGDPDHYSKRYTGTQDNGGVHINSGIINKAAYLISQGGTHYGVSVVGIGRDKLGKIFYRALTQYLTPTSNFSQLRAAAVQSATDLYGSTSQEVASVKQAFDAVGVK

T1 sequence (P12821 whole entry): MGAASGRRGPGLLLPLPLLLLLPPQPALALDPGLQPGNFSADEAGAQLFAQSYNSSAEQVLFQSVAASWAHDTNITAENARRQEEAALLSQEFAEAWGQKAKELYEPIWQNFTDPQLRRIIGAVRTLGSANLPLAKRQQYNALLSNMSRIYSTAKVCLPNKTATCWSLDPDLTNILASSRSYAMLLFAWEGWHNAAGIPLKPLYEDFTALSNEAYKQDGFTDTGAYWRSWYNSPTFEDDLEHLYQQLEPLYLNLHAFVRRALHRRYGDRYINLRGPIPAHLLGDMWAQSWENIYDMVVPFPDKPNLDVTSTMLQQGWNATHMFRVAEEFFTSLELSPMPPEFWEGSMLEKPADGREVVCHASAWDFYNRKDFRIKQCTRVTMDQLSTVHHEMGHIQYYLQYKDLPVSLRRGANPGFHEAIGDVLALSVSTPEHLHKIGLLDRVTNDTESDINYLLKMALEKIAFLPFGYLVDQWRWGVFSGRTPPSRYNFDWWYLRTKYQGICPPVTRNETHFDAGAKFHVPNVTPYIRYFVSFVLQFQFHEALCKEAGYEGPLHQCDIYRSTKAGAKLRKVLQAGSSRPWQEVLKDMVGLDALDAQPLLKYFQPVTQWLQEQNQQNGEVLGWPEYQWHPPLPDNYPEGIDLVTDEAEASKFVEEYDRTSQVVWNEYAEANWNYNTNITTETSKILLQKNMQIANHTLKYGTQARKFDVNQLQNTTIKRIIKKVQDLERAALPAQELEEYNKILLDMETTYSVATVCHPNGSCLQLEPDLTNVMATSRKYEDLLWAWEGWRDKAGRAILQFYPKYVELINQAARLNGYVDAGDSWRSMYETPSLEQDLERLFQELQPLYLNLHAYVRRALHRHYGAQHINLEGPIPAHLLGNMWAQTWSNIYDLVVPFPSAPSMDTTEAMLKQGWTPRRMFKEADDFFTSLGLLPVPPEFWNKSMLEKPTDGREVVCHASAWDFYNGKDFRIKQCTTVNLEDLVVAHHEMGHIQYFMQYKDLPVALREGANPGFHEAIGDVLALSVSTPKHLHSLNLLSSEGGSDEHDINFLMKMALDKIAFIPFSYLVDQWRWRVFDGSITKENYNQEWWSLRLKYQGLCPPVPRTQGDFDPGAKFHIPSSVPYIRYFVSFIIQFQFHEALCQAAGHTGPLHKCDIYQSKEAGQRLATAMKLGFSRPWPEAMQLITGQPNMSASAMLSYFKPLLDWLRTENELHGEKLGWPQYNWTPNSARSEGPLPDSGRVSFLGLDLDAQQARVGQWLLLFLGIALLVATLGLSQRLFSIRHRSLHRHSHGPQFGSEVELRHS

SMILES	IC50 [1]	IC50 (Neprilysin [2])	also measured
CCC(C)C(S)CC(Cc1ccccc1)C(=O)N[C@H](Cc1ccc(O)cc1)C(=O)O (stereo partly specified)	8 µM	0.32 µM	–
CCC(C)C(S)CC(C(=O)NC(Cc1ccc(O)cc1)C(N)=O)C(C)CC (stereo unspecified)	4 µM	0.36 µM	–
CCC(C)C(S)CC(C(=O)NC(Cc1ccc(O)cc1)C(=O)O)C(C)CC (stereo unspecified)	3.4 µM	0.38 µM	–
CCC(C)C(S)CC(Cc1ccccc1)C(=O)N[C@@H](Cc1ccc(O)cc1)C(=O)O (stereo partly specified)	4.4 µM	0.27 µM	–
CCC(C)C(CC(S)Cc1ccccc1)C(=O)O (stereo unspecified)	4 µM	0.25 µM	–
O=C(O)C(CCc1ccccc1)N[C@@H](Cc1ccccc1)C(=O)NC[C@H](O)C(=O)O (stereo partly specified)	–	–	Ki (Neprilysin [3]): 0.011 µM
CC(NC(=O)C(Cc1ccccc1)CC(S)Cc1ccccc1)C(=O)O (stereo unspecified)	–	0.19 µM	IC50 [4]: 3.8 µM
O=C(O)CCNC(=O)C(Cc1ccccc1)CC(Cc1ccccc1)C(=O)O (stereo unspecified)	–	0.018 µM	–
CC(C)CC(S)C(Cc1ccccc1)C(=O)NC(C)C(=O)O (stereo unspecified)	–	0.0036 µM	IC50 (Thermolysin): 4 µM
CCC(C)C(CC(S)CCc1ccccc1)C(=O)NC(Cc1ccc(O)cc1)C(=O)O (stereo unspecified)	2.9 µM	0.26 µM	–
CC(C)C[C@H](NC(CCc1ccccc1)C(=O)O)C(=O)N[C@@H](Cc1c[nH]c2ccccc12)C(=O)O (stereo partly specified)	–	–	Ki (Thermolysin): 0.05 µM
O=C(O)CNC(=O)[C@@H](CS)Cc1ccccc1 [THIORPHAN]	–	–	IC50 (Thermolysin): 1.8 µM
CCC(C)C(CC(S)Cc1ccccc1)C(=O)NC(Cc1ccc(O)cc1)C(=O)O (stereo unspecified)	0.8 µM	0.22 µM	–
CCC(C)C1CC(Cc2ccccc2)SC1=O (stereo unspecified)	2.3 µM	0.22 µM	–
CCC(C)C(S)CC(Cc1ccccc1)C(=O)NC(Cc1ccc(O)cc1)C(N)=O (stereo unspecified)	3.5 µM	0.35 µM	–
O=C(O)CCNC(=O)C(Cc1ccccc1)CC(S)Cc1ccccc1 (stereo unspecified)	3.5 µM	0.29 µM	–
O=C(O)C1CCCN1C(=O)C(Cc1ccccc1)CC(S)Cc1ccccc1 (stereo unspecified)	3.6 µM	0.32 µM	–
CC(NC(=O)C(Cc1ccccc1)CC(S)c1ccccc1)C(=O)O (stereo unspecified)	3.5 µM	0.13 µM	–
O=C(NC(Cc1ccc(O)cc1)C(=O)O)C(Cc1ccccc1)CC(S)Cc1ccccc1 (stereo unspecified)	2.4 µM	0.15 µM	–
CCC(C)C(CC(S)Cc1ccccc1)C(=O)N1CCCC1C(=O)O (stereo unspecified)	2.8 µM	0.35 µM	–
